TGI and GI50 data for 11 molecules are collected here from PubChem BioAssay (NCI).

The structures appear in SMILES notation.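 Each compound was tested at five concentrations against cells in 96-well plates for 48 hours. Here, GI50 denotes the concentration required for 50% inhibition of growth. TGI denotes the concentration required for complete inhibition of growth.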

Test systems include NCI-H522 lung; HOP-62 NSCLC; MDA-MB-231 breast; ACHN renal; SF-295 CNS; NCI/ADR-RES ovarian; COLO 205 colon; NCI-H226 lung; HL-60(TB) leukemia; SK-OV-3 ovarian.
Holding throughout (test): NCI tumour cell line growth inhibition, 48 h

As to `O=C(O)CSc1nc2ccccc2[nH]1`, the TGI in the experiment on NCI-H522 lung, in the experiment on HOP-62 NSCLC, with MDA-MB-231 breast, in the experiment with ACHN renal, in the experiment with SF-295 CNS and in the experiment on NCI/ADR-RES ovarian was above 100 µM in each case.

Consider `COc1cc(CN(C)N2C(=O)c3cccc4cc([N+](=O)[O-])cc(c34)C2=O)cc(OC)c1OC`, for which the TGI in the experiment with NCI-H522 lung is above 100 µM; with HOP-62 NSCLC, 51.9 µM; in the experiment with COLO 205 colon it was above 100 µM; in the experiment with NCI-H226 lung, above 100 µM; with MDA-MB-231 breast it was above 100 µM; with SF-295 CNS, above 100 µM. The TGI in the experiment with HL-60(TB) leukemia, in the experiment with SK-OV-3 ovarian and in the experiment on NCI/ADR-RES ovarian was above 100 µM throughout.

On to `ClCc1nnc2n1-c1ccc(Cl)cc1SC2`, for which the TGI turned out to be 3.21 µM with NCI-H522 lung; 17.4 µM in the experiment on HOP-62 NSCLC; 13 µM in the experiment on COLO 205 colon; 5.64 µM in the experiment on NCI-H226 lung; 15.5 µM with SF-295 CNS; 3.51 µM with HL-60(TB) leukemia. The TGI in the experiment with SK-OV-3 ovarian came out at 12.6 µM; with NCI/ADR-RES ovarian it was 4.76 µM.

Take `CCNc1nc2c(=O)n(C)c(=O)n(C)c2s1`: the TGI in the experiment on NCI-H522 lung, in the experiment on HOP-62 NSCLC, with COLO 205 colon, in the experiment with NCI-H226 lung, in the experiment on ACHN renal and in the experiment on SF-295 CNS was above 100 µM each time. Further, the TGI in the experiment on HL-60(TB) leukemia and in the experiment on SK-OV-3 ovarian was above 100 µM throughout.

As to `CCOC(=O)c1csc(NC(=O)CCN2CCOCC2)n1`, the TGI with HOP-62 NSCLC was above 100 µM; with COLO 205 colon, above 100 µM; in the experiment on MDA-MB-231 breast it was above 100 µM; in the experiment with ACHN renal it was above 100 µM; in the experiment on SF-295 CNS, above 100 µM; in the experiment with HL-60(TB) leukemia it was 94.4 µM. Moreover, the TGI in the experiment with SK-OV-3 ovarian and in the experiment on NCI/ADR-RES ovarian was above 100 µM throughout.

On to `Cc1cc(C)c(S(=O)(=O)N(CCCCCCN)OCCCON(CCCCCCN)S(=O)(=O)c2c(C)cc(C)cc2C)c(C)c1`, for which the TGI in the experiment with NCI-H522 lung worked out at 3.27 µM; with HOP-62 NSCLC, 3.6 µM; in the experiment with COLO 205 colon, 3.76 µM; in the experiment on MDA-MB-231 breast, 3.21 µM; in the experiment on ACHN renal, 13.1 µM; in the experiment on SF-295 CNS, 3.41 µM. Moreover, the TGI was above 100 µM in the experiment with HL-60(TB) leukemia, 3.37 µM in the experiment on SK-OV-3 ovarian and 34.6 µM with NCI/ADR-RES ovarian.

In the case of `O=c1n(Cc2ccccc2)c2ccccc2n1CC1CS1` (configuration not stated), the TGI in the experiment on NCI-H522 lung, in the experiment with HOP-62 NSCLC, with COLO 205 colon, in the experiment with NCI-H226 lung, in the experiment on ACHN renal and in the experiment on SF-295 CNS was above 100 µM throughout. Besides, the TGI with HL-60(TB) leukemia and in the experiment on SK-OV-3 ovarian was above 100 µM throughout.

For the molecule `C=C1CC2(C)CCC(OC(=O)C3(C)OC3C)C(C)(OC(C)=O)C2CC1=C(C)C` (configuration not stated), the TGI in the experiment with NCI-H522 lung, in the experiment with HOP-62 NSCLC, in the experiment on COLO 205 colon, in the experiment with MDA-MB-231 breast, in the experiment on ACHN renal and in the experiment on SF-295 CNS was above 100 µM in each case. Further, the TGI in the experiment with HL-60(TB) leukemia was 76.1 µM; with SK-OV-3 ovarian it was above 100 µM; in the experiment on NCI/ADR-RES ovarian, above 100 µM.

With `CC1(C)CCCC2(C)[C@@H]1CC[C@]13C[C@](C)(CC[C@@H]21)[C@@H]3CO` (some centres not stated), the TGI in the experiment on NCI-H522 lung, with HOP-62 NSCLC, in the experiment with COLO 205 colon, in the experiment with NCI-H226 lung, with ACHN renal and in the experiment with SF-295 CNS was above 100 µM in each case. For the same molecule, the TGI in the experiment with HL-60(TB) leukemia and in the experiment on SK-OV-3 ovarian was above 100 µM throughout.

For `Fc1cc(C2=Nn3c(nnc3-c3cc(F)c(Cl)cc3Cl)SC2)c(Cl)cc1Cl`, the GI50 with NCI-H522 lung was 24.1 µM; in the experiment on COLO 205 colon it was 19 µM; in the experiment on NCI-H226 lung, 14.9 µM; with MDA-MB-231 breast it was 13.4 µM; in the experiment with ACHN renal, 26.6 µM; with SF-295 CNS, 20.3 µM. The GI50 was 80.4 µM in the experiment with HL-60(TB) leukemia, 29.2 µM in the experiment on SK-OV-3 ovarian and 27.4 µM in the experiment on NCI/ADR-RES ovarian. The TGI in the experiment on NCI-H522 lung was above 100 µM; in the experiment with COLO 205 colon, 43.1 µM; in the experiment with NCI-H226 lung it was 36 µM; with MDA-MB-231 breast, 34.5 µM; with ACHN renal it was 90.9 µM; with SF-295 CNS, 51.9 µM. For the same molecule, the TGI in the experiment with HL-60(TB) leukemia, with SK-OV-3 ovarian and in the experiment with NCI/ADR-RES ovarian was above 100 µM each time.

Consider `COc1ccc2c(c1)C(=O)/C(=C/c1ccccc1)C2`, for which the TGI in the experiment on NCI-H522 lung was above 100 µM; in the experiment with HOP-62 NSCLC, above 100 µM; with NCI-H226 lung, above 100 µM; in the experiment with SF-295 CNS, above 100 µM; in the experiment with SK-OV-3 ovarian, above 100 µM; with NCI/ADR-RES ovarian, 88.2 µM.
